Assay results as given in article PMC5218480 (PLoS ONE, 2017).

System: MV-4-11 cells
Assay: Gene expression microarray analysis (Affymetrix PrimeView) and GSEA
Assay type: cell-based, human
Design: RFU PODN (11730768_x_at) / Fold change /veh PODN (11730768_x_at) / RFU LINC00158 (11744669_a_at) / Fold change /veh LINC00158 (11744669_a_at) / RFU DUSP10 (11751237_a_at) / Fold change /veh DUSP10 (11751237_a_at) / RFU ID3 (11757404_x_at) / Fold change /veh ID3 (11757404_x_at) / RFU PLEKHG5 (11737974_s_at) / Fold change /veh PLEKHG5 (11737974_s_at) / RFU LRRC4B (11730491_at) / Fold change /veh LRRC4B (11730491_at) / RFU GIMAP4 (11747438_a_at) / Fold change /veh GIMAP4 (11747438_a_at) / RFU KRT8 (11758183_x_at) / Fold change /veh KRT8 (11758183_x_at) / RFU CNN1 (11734310_a_at) / Fold change /veh CNN1 (11734310_a_at) / RFU VPS37D (11726825_at) / Fold change /veh VPS37D (11726825_at) / RFU C10orf10 (11716522_x_at) / Fold change /veh C10orf10 (11716522_x_at) / RFU KIR2DL2 /// KIR2DL4 /// KIR2DL5A /// KIR2DL5B /// KIR2DS1 /// KIR2DS2 /// KIR2DS3 /// KIR2DS4 /// KIR3DL3 /// KIR3DL3 /// KIR3DS1 (11738374_at) / Fold change /veh KIR2DL2 /// KIR2DL4 /// KIR2DL5A /// KIR2DL5B /// KIR2DS1 /// KIR2DS2 /// KIR2DS3 /// KIR2DS4 /// KIR3DL3 /// KIR3DL3 /// KIR3DS1 (11738374_at) / RFU C1QL1 (11718748_at) / Fold change /veh C1QL1 (11718748_at) / RFU TMPRSS4 (11747572_a_at) / Fold change /veh TMPRSS4 (11747572_a_at) / RFU HAMP (11756126_x_at) / Fold change /veh HAMP (11756126_x_at) / RFU RNFT2 (11725882_a_at) / Fold change /veh RNFT2 (11725882_a_at) / RFU NR4A2 (11747474_a_at) / Fold change /veh NR4A2 (11747474_a_at) / RFU ABCC12 (11746883_a_at) / Fold change /veh ABCC12 (11746883_a_at) / RFU TMEM136 (11760407_x_at) / Fold change /veh TMEM136 (11760407_x_at) / RFU CLDN22 /// WWC2 (11732394_at) / Fold change /veh CLDN22 /// WWC2 (11732394_at) / RFU HLA-DPB1 (11760878_x_at) / Fold change /veh HLA-DPB1 (11760878_x_at) / RFU SPINT1 (11716480_a_at) / Fold change /veh SPINT1 (11716480_a_at) / RFU GAP43 (11754022_s_at) / Fold change /veh GAP43 (11754022_s_at) / RFU A4GNT (11735810_at) / Fold change /veh A4GNT (11735810_at) / RFU PRB3 (11715151_x_at) / Fold change /veh PRB3 (11715151_x_at) / RFU TUBB4B (11761932_at) / Fold change /veh TUBB4B (11761932_at) / RFU CAPN14 (11732068_a_at) / Fold change /veh CAPN14 (11732068_a_at) / RFU TMCC2 (11721928_a_at) / Fold change /veh TMCC2 (11721928_a_at) / RFU IRGQ (11745062_a_at) / Fold change /veh IRGQ (11745062_a_at) / RFU FAM174B (11720279_a_at) / Fold change /veh FAM174B (11720279_a_at) / RFU TMPRSS4 (11748680_a_at) / Fold change /veh TMPRSS4 (11748680_a_at) / RFU FAM212B (11763350_a_at) / Fold change /veh FAM212B (11763350_a_at) / RFU PLEKHG5 (11743358_a_at) / Fold change /veh PLEKHG5 (11743358_a_at) / RFU ZSCAN30 (11745921_a_at) / Fold change /veh ZSCAN30 (11745921_a_at) / RFU CMKLR1 (11741424_a_at) / Fold change /veh CMKLR1 (11741424_a_at) / RFU LOC101060620 /// MAPK8IP1 (11723275_at) / Fold change /veh LOC101060620 /// MAPK8IP1 (11723275_at) / RFU SPTSSB (11747773_x_at) / Fold change /veh SPTSSB (11747773_x_at) / RFU PRSS12 (11739890_at) / Fold change /veh PRSS12 (11739890_at) / RFU BIN1 (11741810_x_at) / Fold change /veh BIN1 (11741810_x_at) / RFU WNT11 (11732464_a_at) / Fold change /veh WNT11 (11732464_a_at) / RFU C10orf10 (11716521_a_at) / Fold change /veh C10orf10 (11716521_a_at) / RFU C5orf56 (11738089_at) / Fold change /veh C5orf56 (11738089_at) / RFU CYB561 (11721691_x_at) / Fold change /veh CYB561 (11721691_x_at) / RFU ANKRD19P (11752326_a_at) / Fold change /veh ANKRD19P (11752326_a_at) / RFU OR2T12 /// OR2T33 /// OR2T8 (11738714_s_at) / Fold change /veh OR2T12 /// OR2T33 /// OR2T8 (11738714_s_at) / RFU VCAN (11748164_a_at) / Fold change /veh VCAN (11748164_a_at) / RFU JSRP1 (11732532_at) / Fold change /veh JSRP1 (11732532_at) / RFU KRTAP10-11 (11738290_x_at) / Fold change /veh KRTAP10-11 (11738290_x_at) / RFU MYO3A (11730013_a_at) / Fold change /veh MYO3A (11730013_a_at) / RFU EBF3 (11725865_a_at) / Fold change /veh EBF3 (11725865_a_at) / RFU CAMK2N1 (11719241_x_at) / Fold change /veh CAMK2N1 (11719241_x_at) / RFU C5orf56 (11738088_a_at) / Fold change /veh C5orf56 (11738088_a_at) / RFU OLFML3 (11715873_a_at) / Fold change /veh OLFML3 (11715873_a_at) / RFU LOC100653217 /// NTM (11731650_a_at) / Fold change /veh LOC100653217 /// NTM (11731650_a_at) / RFU MAPK11 (11762145_a_at) / Fold change /veh MAPK11 (11762145_a_at) / RFU FIZ1 (11724087_x_at) / Fold change /veh FIZ1 (11724087_x_at) / RFU OASL (11726364_x_at) / Fold change /veh OASL (11726364_x_at) / RFU SOX15 (11748057_x_at) / Fold change /veh SOX15 (11748057_x_at) / RFU CD79A (11719716_a_at) / Fold change /veh CD79A (11719716_a_at) / RFU HIST1H1D (11736915_at) / Fold change /veh HIST1H1D (11736915_at) / RFU CASKIN2 (11723855_a_at) / Fold change /veh CASKIN2 (11723855_a_at) / RFU LOC730098 (11760151_x_at) / Fold change /veh LOC730098 (11760151_x_at) / RFU OR4N2 (11742367_at) / Fold change /veh OR4N2 (11742367_at) / RFU PRRT2 (11749266_a_at) / Fold change /veh PRRT2 (11749266_a_at) / RFU SNX32 (11753110_a_at) / Fold change /veh SNX32 (11753110_a_at) / RFU CDHR5 (11726645_a_at) / Fold change /veh CDHR5 (11726645_a_at) / RFU RCAN1 (11760418_a_at) / Fold change /veh RCAN1 (11760418_a_at) / RFU FAM167A (11723789_a_at) / Fold change /veh FAM167A (11723789_a_at) / RFU FAM26E (11764081_at) / Fold change /veh FAM26E (11764081_at) / RFU ISYNA1 (11749810_s_at) / Fold change /veh ISYNA1 (11749810_s_at) / RFU ACY1 (11761880_at) / Fold change /veh ACY1 (11761880_at) / RFU 11764098_at / Fold change /veh 11764098_at / RFU SAMD14 (11745864_x_at) / Fold change /veh SAMD14 (11745864_x_at) / RFU NPB (11741838_a_at) / Fold change /veh NPB (11741838_a_at) / RFU TMPRSS6 (11731388_a_at) / Fold change /veh TMPRSS6 (11731388_a_at) / RFU KRTAP10-2 (11738614_at) / Fold change /veh KRTAP10-2 (11738614_at) / RFU ARHGAP8 /// PRR5-ARHGAP8 (11727945_x_at) / Fold change /veh ARHGAP8 /// PRR5-ARHGAP8 (11727945_x_at) / RFU KRTAP5-7 /// NADSYN1 (11734609_at) / Fold change /veh KRTAP5-7 /// NADSYN1 (11734609_at) / RFU RASL12 (11751679_a_at) / Fold change /veh RASL12 (11751679_a_at) / RFU CDKN2B (11736163_a_at) / Fold change /veh CDKN2B (11736163_a_at) / RFU PRF1 (11729649_at) / Fold change /veh PRF1 (11729649_at) / RFU, ZNF638 /// ZNF638-IT1 / Fold change vs veh, ZNF638 /// ZNF638-IT1 / RFU, PANK3 / Fold change vs veh, PANK3 / RFU, SH3YL1 / Fold change vs veh, SH3YL1 / RFU, ZEB2 / Fold change vs veh, ZEB2 / RFU, NRIP1 / Fold change vs veh, NRIP1 / RFU, PTTG1IP / Fold change vs veh, PTTG1IP / RFU, CAPN2 / Fold change vs veh, CAPN2 / RFU, MED14 / Fold change vs veh, MED14 / RFU, SNORA58 / Fold change vs veh, SNORA58 / RFU, C1orf63 / Fold change vs veh, C1orf63 / RFU, LRRFIP1 / Fold change vs veh, LRRFIP1 / RFU, NDUFAF7 / Fold change vs veh, NDUFAF7 / RFU, SLC12A2 / Fold change vs veh, SLC12A2 / RFU, IBTK / Fold change vs veh, IBTK / RFU, ESF1 / Fold change vs veh, ESF1 / Fold change vs veh, TMEM50B / RFU, TAOK1 / Fold change vs veh, TAOK1 / RFU, ACBD3 / Fold change vs veh, ACBD3 / RFU, TMA16 / Fold change vs veh, TMA16 / RFU, RWDD3 / Fold change vs veh, RWDD3 / RFU, BCAT1 / Fold change vs veh, BCAT1 / RFU, EDEM3 / Fold change vs veh, EDEM3 / RFU, TMEM33 / Fold change vs veh, TMEM33 / RFU, WDR75 / Fold change vs veh, WDR75 / RFU, AHCTF1 / Fold change vs veh, AHCTF1 / RFU, TFRC / Fold change vs veh, TFRC / RFU, ZDHHC17 / Fold change vs veh, ZDHHC17 / RFU, NOM1 / Fold change vs veh, NOM1 / RFU, ARL8B / Fold change vs veh, ARL8B / RFU, ZBTB11 / Fold change vs veh, ZBTB11 / RFU, TAMM41 / Fold change vs veh, TAMM41 / RFU, KIAA1704 /// LOC100996395 / Fold change vs veh, KIAA1704 /// LOC100996395 / RFU, ING1 / Fold change vs veh, ING1 / RFU, TRMT61B / Fold change vs veh, TRMT61B / RFU, FUBP3 / Fold change vs veh, FUBP3 / RFU, TP53 / Fold change vs veh, TP53 / RFU, TNKS2 / Fold change vs veh, TNKS2 / RFU, ZFP14 / Fold change vs veh, ZFP14 / RFU, ACTR2 / Fold change vs veh, ACTR2 / RFU, PPP3R1 / Fold change vs veh, PPP3R1 / RFU, PIK3R1 / Fold change vs veh, PIK3R1 / RFU, HNRNPA1 / Fold change vs veh, HNRNPA1 / RFU, RNF170 / Fold change vs veh, RNF170 / RFU, ZNF28 / Fold change vs veh, ZNF28 / RFU, RNGTT / Fold change vs veh, RNGTT / RFU, OGT / Fold change vs veh, OGT / RFU, BRD1 / Fold change vs veh, BRD1 / RFU, MARS / Fold change vs veh, MARS / RFU, ZNF655 / Fold change vs veh, ZNF655 / RFU, FAHD1 / Fold change vs veh, FAHD1 / RFU, BDP1 / Fold change vs veh, BDP1 / RFU, LRRCC1 / Fold change vs veh, LRRCC1 / RFU, ARID1A / Fold change vs veh, ARID1A / RFU, ZNF146 / Fold change vs veh, ZNF146 / RFU, ZNF330 / Fold change vs veh, ZNF330 / RFU, GPN3 / Fold change vs veh, GPN3 / RFU, C9orf123 / Fold change vs veh, C9orf123 / RFU, N4BP2L2 / Fold change vs veh, N4BP2L2 / RFU, ARFIP1 / Fold change vs veh, ARFIP1 / RFU, FAM179B / Fold change vs veh, FAM179B / RFU, BCL10 / Fold change vs veh, BCL10 / RFU, UHRF1BP1L / Fold change vs veh, UHRF1BP1L / RFU, BET1 / Fold change vs veh, BET1 / RFU, CNOT2 / Fold change vs veh, CNOT2 / RFU, ZNF268 / Fold change vs veh, ZNF268 / Fold change vs veh, ZNF507 / RFU, DGCR2 / Fold change vs veh, DGCR2 / RFU, WDSUB1 / Fold change vs veh, WDSUB1 / Fold change vs veh, HSP90B1 /// MIR3652 / RFU, ADSS / Fold change vs veh, ADSS / RFU, GK / Fold change vs veh, GK / RFU, ZNF148 / Fold change vs veh, ZNF148 / RFU, TAF9 / Fold change vs veh, TAF9 / RFU, SLC1A5 / Fold change vs veh, SLC1A5 / RFU, SLMO2 / Fold change vs veh, SLMO2 / RFU, ABCC4 / Fold change vs veh, ABCC4 / RFU, LOC101060439 /// RAP1B / Fold change vs veh, LOC101060439 /// RAP1B / RFU, RFX7 / Fold change vs veh, RFX7 / RFU, GTPBP10 / Fold change vs veh, GTPBP10 / RFU, CNEP1R1 / Fold change vs veh, CNEP1R1 / RFU, BIVM-ERCC5 /// ERCC5 / Fold change vs veh, BIVM-ERCC5 /// ERCC5 / RFU, ILF3 / Fold change vs veh, ILF3 / RFU 11762660_at / Fold change /veh 11762660_at / RFU VCAN (11757783_s_at) / Fold change /veh VCAN (11757783_s_at) / RFU DDX43 (11728927_at) / Fold change /veh DDX43 (11728927_at) / RFU KRT8 (11758188_x_at) / Fold change /veh KRT8 (11758188_x_at) / RFU NKD1 (11759106_at) / Fold change /veh NKD1 (11759106_at) / RFU SRD5A1 (11742802_a_at) / Fold change /veh SRD5A1 (11742802_a_at) / RFU TPSAB1 /// TPSB2 (11721975_s_at) / Fold change /veh TPSAB1 /// TPSB2 (11721975_s_at) / RFU GSTM3 (11746129_a_at) / Fold change /veh GSTM3 (11746129_a_at) / RFU IL23R (11737362_x_at) / Fold change /veh IL23R (11737362_x_at) / RFU TMEM51 (11727254_a_at) / Fold change /veh TMEM51 (11727254_a_at) / RFU PIWIL2 (11732686_x_at) / Fold change /veh PIWIL2 (11732686_x_at) / RFU ORM1 (11744905_x_at) / Fold change /veh ORM1 (11744905_x_at) / RFU CCDC152 (11743942_at) / Fold change /veh CCDC152 (11743942_at) / RFU ECM1 (11717891_a_at) / Fold change /veh ECM1 (11717891_a_at) / RFU IL23R (11748794_a_at) / Fold change /veh IL23R (11748794_a_at) / RFU TNFAIP8L3 (11732012_x_at) / Fold change /veh TNFAIP8L3 (11732012_x_at) / RFU MBOAT4 (11741988_at) / Fold change /veh MBOAT4 (11741988_at) / RFU 11764193_at / Fold change /veh 11764193_at / RFU TMEM53 (11763286_at) / Fold change /veh TMEM53 (11763286_at) / RFU MAGEB2 (11727129_at) / Fold change /veh MAGEB2 (11727129_at) / RFU TMEM200A (11744735_a_at) / Fold change /veh TMEM200A (11744735_a_at) / RFU CCDC152 (11751479_a_at) / Fold change /veh CCDC152 (11751479_a_at) / RFU FAM211A (11726209_a_at) / Fold change /veh FAM211A (11726209_a_at) / RFU RGS16 (11746705_a_at) / Fold change /veh RGS16 (11746705_a_at) / RFU VCAN (11755009_s_at) / Fold change /veh VCAN (11755009_s_at) / RFU RHOB (11743442_s_at) / Fold change /veh RHOB (11743442_s_at) / RFU RGS16 (11720943_a_at) / Fold change /veh RGS16 (11720943_a_at) / RFU RGS16 (11720944_at) / Fold change /veh RGS16 (11720944_at) / RFU, VPS4B / Fold change vs veh, VPS4B / RFU, CREB1 / Fold change vs veh, CREB1 / RFU, DNAJC13 / Fold change vs veh, DNAJC13 / RFU, GNAQ / Fold change vs veh, GNAQ / RFU, CDK5R1 / Fold change vs veh, CDK5R1 / RFU, ZRANB3 / Fold change vs veh, ZRANB3 / RFU, CUL4A / Fold change vs veh, CUL4A / RFU, CCNY / Fold change vs veh, CCNY / RFU, UFL1 / Fold change vs veh, UFL1 / RFU, COG3 / Fold change vs veh, COG3 / RFU, DIAPH2 / Fold change vs veh, DIAPH2 / RFU, SKA2 / Fold change vs veh, SKA2 / RFU, AFF3 / Fold change vs veh, AFF3 / RFU, LMF1 / Fold change vs veh, LMF1 / RFU, IPO11 / Fold change vs veh, IPO11 / RFU, DFFB / Fold change vs veh, DFFB / RFU, FOXP1 / Fold change vs veh, FOXP1 / RFU, CARD8 / Fold change vs veh, CARD8 / RFU, STRN3 / Fold change vs veh, STRN3 / RFU, ADK / Fold change vs veh, ADK / RFU, RASSF2 / Fold change vs veh, RASSF2 / RFU, WIPF1 / Fold change vs veh, WIPF1 / RFU, LARP1B / Fold change vs veh, LARP1B / RFU, RASA1 / Fold change vs veh, RASA1 / RFU, RB1 / Fold change vs veh, RB1 / RFU, PPFIA1 / Fold change vs veh, PPFIA1 / RFU, MAT2A / Fold change vs veh, MAT2A / RFU, CCT5 / Fold change vs veh, CCT5 / RFU, WDR92 / Fold change vs veh, WDR92 / RFU, CUX1 / Fold change vs veh, CUX1 / RFU, TTC7A / Fold change vs veh, TTC7A / RFU, TMEM135 / Fold change vs veh, TMEM135 / RFU, DEPTOR / Fold change vs veh, DEPTOR / RFU, CPM / Fold change vs veh, CPM / RFU, DNAJB6 / Fold change vs veh, DNAJB6 / RFU, CACNA2D3 / Fold change vs veh, CACNA2D3 / RFU, DTX4 / Fold change vs veh, DTX4 / RFU, TFCP2 / Fold change vs veh, TFCP2 / RFU, GMCL1 /// GMCL1P1 / Fold change vs veh, GMCL1 /// GMCL1P1 / RFU, AEBP2 / Fold change vs veh, AEBP2 / RFU, SNHG1 /// SNORD22 /// SNORD25 /// SNORD26 /// SNORD27 /// SNORD28 /// SNORD29 /// SNORD31 / Fold change vs veh, SNHG1 /// SNORD22 /// SNORD25 /// SNORD26 /// SNORD27 /// SNORD28 /// SNORD29 /// SNORD31 / Fold change (Aza/veh), C12orf56 (ProbeSet 11735607_a_at) / Fold change (ACY-1035/veh), C12orf56 (ProbeSet 11735607_a_at) / Fold change (Aza/veh), FGFR1OP (ProbeSet 11751329_s_at) / Fold change (ACY-1035/veh), FGFR1OP (ProbeSet 11751329_s_at) / Fold change (Aza/veh), VPS36 (ProbeSet 11739960_a_at) / Fold change (ACY-1035/veh), VPS36 (ProbeSet 11739960_a_at) / RFU SYPL1 (11715823_x_at) / Fold change /veh SYPL1 (11715823_x_at) / RFU IGFBP7 (11715501_s_at) / Fold change /veh IGFBP7 (11715501_s_at) / RFU REEP3 (11722064_at) / Fold change /veh REEP3 (11722064_at) / RFU IGLL1 (11728026_x_at) / Fold change /veh IGLL1 (11728026_x_at): dose or concentration left out as unconfirmed
Conditions: ProbeSet 11717914_a_at; LIST B

Nc1ccc(-c2cccs2)cc1NC(=O)c1ccc2c(c1)cc(C1CC1)n2CCN1CCOCC1 [ACY-1035]
Fold change vs veh, BIVM-ERCC5 /// ERCC5: 1.00
